From publication PMC6072878, “Brasilianoids A–F, New Meroterpenoids From the Sponge-Associated Fungus Penicillium brasilianum” (Frontiers in Chemistry, 2018)
Read-outs that look alike come from different tables or passages of the source.

Columns and labels:
[1] = Cytotoxic activity toward tumor cell line U937; type: cell-based; settings: human, U937 tumor cells
[2] = system: caspase-14; test: Expression of caspase-14 in HaCaT cells (qRT-PCR); type: cell-based; settings: HaCaT cells, 20, 10, 5 μM, 72 h, dose dependent
Description: (§1) HaCaT cells were cultured with DMEM in 6-well plate at 1 × 10^5 cells/well for 24 h, then treated with 20, 10, 5 μM of compounds 1–7 for 72 h. Total RNA of HaCaT cells were extracted using RNA Miniprep kit (Biomiga) according to the manufacturer's instruction. Then total RNA was reverse transcribed using PrimeScript RT reagent Kit (Takara, Dalian, China). PCR amplification was performed on an StepOne Plus real time PCR system (Applied Biosystems, Foster City, CA) using the SYBR Green Master Mix (Applied Biosystems, Foster City, CA). All experiments were performed in triplicate, and the relative levels of assayed mRNAs were calculated with the delta–delta CT method using ACTIN expressions as endogenous control, and normalized to non-treated control. […]
(§2) delta‒delta CT method using lamivudine expressions as positive control, and normalized to non-treated control.
(§3) 9. Assay for protective effects on skin barrier functions in in vitro
(§4) HaCaT cells were cultured with DMEM in 6-well plate at 1×10^5 cells/well for 24 h, then treated with 20, 10, 5 µM of compounds 1‒8 for 72 h. […]
(§5) All experiments were performed in triplicate, and the relative levels of assayed mRNAs were calculated with the delta‒delta CT method using ACTIN expressions as endogenous control, and normalized to non-treated control.

[3] = system: NO production in LPS-induced RAW 264.7 macrophages; test: Inhibition of LPS induced NO production in RAW264.7 macrophages (Griess reagent); type: cell-based, mouse
Description: All compounds were assayed by measuring the inhibitory effects on NO production induced by LPS in mouse macrophage RAW 264.7 cells. The RAW 264.7 cells were seeded in each well of a 96-well plate at a concentration of 5 × 10^5 cells/ml in DMEM medium containing 10% fetal bovine serum, 2 mmol/l glutamine, 100 U/ml penicillin, and 100 μg/ml streptomycin. After incubation at 37°C in a humidified atmosphere of 5% CO2 air for 12 h, cells were treated with LPS (1 μg/ml) and compounds ([…], and compound was dissolved in DMSO to dilute until the final DMSO concentration <0.1%, v/v), then incubation for 24 h at 37°C. NO production was determined by measuring the quantity of nitrite in the culture medium by the Griess reagent. Aminoguanidine was selected as a positive control. A 50 μl of the supernatant of culture medium was mixed with 100 μl of the Griess reagent. Using nitrite to generate a standard curve, nitrite production was measured by a microplate reader at 540 nm. Cell viability was examined by the MTT method (Wu et al., [2016]). The compounds with inhibitory rate more than 50% at a dose of 50 μg/ml were further detected in the gradient concentrations to calculate IC50 values. […]
(§6) 7. Assay for inhibition toward nitric oxide production in RAW264.7 macrophages The experiment was conducted according to a literature procedure.1 Murine monocytic RAW264.7 cells grown in 96-well cell culture plates (2 × 10^5 cells/well) and pretreated with serial concentrations of the compounds 1‒8 for 30 min, followed by stimulation with LPS (1 μg/mL) under a humidified atmosphere with 5% CO2 at 37°C. After 24 h, the NO production of the supernatant was determined by adding the 100 μL of Griess reagent. Subsequently, the MTT
(§7) [3-(4,5-dimethylthiazol-2-yl)-2,5-diphenyltetrazolium bromide] reduction2 was used to evaluate the cell viability, and results were expressed as the mean value of triplicate determinations. The positive control was aminoguanidine.2 […]

[4] = Cell viability of RAW264.7 macrophages (MTT method); type: cell-based, mouse; settings: mouse
Description: as §6, §7

[5] = Cytotoxic activity toward tumor cell line A549; type: cell-based; settings: human, A549 tumor cells
[6] = system: HaCaT cells; test: Protection against UVB-induced cell damage in HaCaT cells (MTT assay); type: cell-based; settings: Homo sapiens, HaCaT, light or radiation study, 24 h, read-out: cell viability after UVB irradiation
Description: HaCaT cells were seeded at 5 × 10^5 cells per well in 6-well plates and incubated under starvation conditions for 24 h using serum-free MEM. HaCaT cells were exposed to UVB irradiation (UVB lamp: SUV-1000, Sigma-China) at a dose of 30 mJ/cm^2. After UVB irradiation, DMEM medium containing 1 (20 μM) or epigallocatechin gallate (20 μM) was added and the cells were incubated for 24 h, and then the MTT assay was performed.

[7] = Cytotoxic activity toward tumor cell line SMMC7721; type: cell-based; settings: human, SMMC7721 tumor cells
[8] = system: filaggrin; test: Expression of filaggrin in HaCaT cells (qRT-PCR); type: cell-based; settings: HaCaT cells, 20, 10, 5 μM, 72 h, dose dependent
Description: as §1, §2, §3, §4, §5

[9] = system: HBV virus in HepG2.2.15 cells; test: In vitro anti-HBV effects (HBV DNA, real time PCR); type: cell-based; settings: 10 μM
Description: HepAD38 cells were cultured with DMEM in 48-well plate at 1 × 10^5 cells/well for 24 h, then treated with 10 μM of each compound for 72 h. After 4 days, the cells were washed with precooled PBS for 2 times. HBV progeny DNA of HepAD38 cells were extracted using QIAamp DNA Blood Mini kit (Biomiga) according to the manufacturer's instruction. Total DNA was reversely transcribed using PrimeScript RT reagent Kit (Takara, Dalian, China). PCR amplification was performed on an StepOne Plus real time PCR system (Applied Biosystems, Foster City, CA) using the SYBR Green Master Mix (Applied Biosystems, Foster City, CA). All experiments were performed in triplicate, and the relative levels of assayed HBV DNA were calculated with the delta–delta CT method using lamivudine as a positive control, and normalized to non-treated control. […]
8. Assay for in vitro anti-HBV effects
HepG2. 2. 15 cells were cultured with DMEM in 48-well plate at 1×10^5 cells/well for 24 h, then treated with 10 µM of compounds for 72 h. At d 4, these cells were washed 2 times with precooled PBS, and treated with 10 µM of compounds for 72 h.
HBV progeny DNA of HepG2. 2. 15 cells were extracted using QIAamp DNA Blood Mini kit (Biomiga) according to the manufacturer's instruction. Then total DNA was reverse transcribed using PrimeScript RT reagent Kit (Takara, Dalian, China). The primers were designed and synthesized by Takara, and the sequences of the primers […]
PCR amplification was performed on an StepOne Plus real time PCR system (Applied Biosystems, Foster City, CA) using the SYBR Green Master Mix (Applied Biosystems, Foster City, CA). All experiments were performed in triplicate, and the relative levels of assayed HBV DNA were calculated with the […]
delta‒delta CT method using lamivudine expressions as positive control, and normalized to non-treated control. […]
(Takara, Dalian, China). The primers were designed and synthesized by Takara, the […]
performed on an StepOne Plus real time PCR system (Applied Biosystems, Foster City, CA) using the SYBR Green Master Mix (Applied Biosystems, Foster City, CA). […]

[10] = system: RAW264.7 macrophages; test: Cell viability of RAW264.7 macrophages (MTT method); type: cell-based, mouse; settings: RAW264.7, MTT; Table 3; read-out: CC50 (μM) Cytotoxicity
Description: as §6, §7

| SMILES | IC50 [1] [µM] | expression of caspase-14 [2] | IC50 ([3]; Mus musculus, RAW264.7, read-out: IC50 (M), 50% inhibitory concentration) [M] | CC50 at 24 h ([4]; RAW264.7, MTT, Table 3, read-out: CC50 (μM) Cytotoxicity) [µM] | CC50 at 24 h ([4]; Table S9 of the supplement, read-out: CC50 (M), 50% cytotoxic concentration) [µM] | IC50 [5] [µM] | viability at 20 µM [6] [%] | IC50 [7] [µM] | expression of filaggrin [8] | NO inhibition % (50 μM) ([3]; 50 μM, LPS 1 μg/ml, 24 h) [%] | IC50 ([3]; LPS 1 μg/ml, 24 h, Table 3, read-out: IC50 (μM) NO) [M] | inhibition toward NO production (in words) ([3]; LPS-induced RAW 264.7 macrophages) | inhibitory rate of DNA expression of the HBV virus [9] [%] | CC50 [10] [µM] |
| --- | --- | --- | --- | --- | --- | --- | --- | --- | --- | --- | --- | --- | --- | --- |
| C=C1[C@@]2(C)C[C@H]3[C@]4(C)[C@H](O)[C@@H]5C[C@@](C)(OC5=O)[C@H]4CC[C@]3(C)[C@]1(C(=O)OC)C(=O)[C@@](C)(O)C2=O [Compound 1, methyl (1R, 2S, 5R, 5aS, 7aS, 8R, 10S, 12R, 13aR, 13bS)-1, 10-dihydroxy-5,7a,10,12,13b-pentamethyl-14-methylene-3,9,11-trioxotetradecahydro-2,5:8,12-dimethanocycloocta[3,4]benzo[1,2-c]oxepine-8(5H)-carboxylate] | > 10 | significantly stimulated | > 5e-05 | > 100 | > 50 | > 10 | 77 | > 10 | significantly stimulated | – | – | – | – | – |
| C=C1C2(C)CC3C4(C)C=CC(=O)OC(C)(C)C4CCC3(C)C13C(=O)OC(C)C3(O)C2=O [Compound 3, (5aS, 5bS, 7R, 8aR, 9R, 11aR, 11bS, 13aS)-8a-hydroxy-1,1,5a, 7,9,11b-hexamethyl-14-methylene-5a,5b,6,7,8a,9,11b,12,13,13a-decahydro-1H,11H-7, 11a-methanofuro[3″,4″:3′,4′]cyclohepta[1′,2′:3,4]benzo[1,2-c]oxepine-3,8,11-trione] | – | – | – | – | – | – | – | – | – | 65 | 3.38e-05 ± 3.13e-06 | moderate inhibition | 25 | > 100 |
